Source: patent publication US10168342B2, “Lipid probes and uses thereof” (THE SCRIPPS RESEARCH INSTITUTE, priority 2015, dated 2019)
Where two headings read alike, the source gives them in different places.

What was measured:
[1] = target: AEA-DA lipid probe targets in Neuro2a cells (Mus musculus, UniProt Q60932); conditions: Neuro2a cells, AEA-DA probe
[2] = target: T1, AEA-DA lipid probe targets in Neuro2a cells (Mus musculus, UniProt Q9R1J0); conditions: for SILAC ratio, NSDHL (Q15738): Neuro2a cells, AEA-DA probe
T1 sequence (Q9R1J0 1-362): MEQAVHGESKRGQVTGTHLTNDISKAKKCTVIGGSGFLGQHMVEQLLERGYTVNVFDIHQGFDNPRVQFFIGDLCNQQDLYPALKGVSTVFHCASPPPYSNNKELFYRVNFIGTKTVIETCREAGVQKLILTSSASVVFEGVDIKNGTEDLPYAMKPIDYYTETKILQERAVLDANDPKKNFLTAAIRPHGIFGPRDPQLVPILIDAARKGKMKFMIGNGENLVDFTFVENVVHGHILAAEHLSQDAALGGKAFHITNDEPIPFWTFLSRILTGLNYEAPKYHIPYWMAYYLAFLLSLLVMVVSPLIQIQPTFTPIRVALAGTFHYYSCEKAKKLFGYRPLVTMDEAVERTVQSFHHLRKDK

[3] = target: T2, AEA-DA lipid probe targets in Neuro2a cells (Mus musculus, UniProt Q8K411)
T2 sequence (Q8K411 16-1036): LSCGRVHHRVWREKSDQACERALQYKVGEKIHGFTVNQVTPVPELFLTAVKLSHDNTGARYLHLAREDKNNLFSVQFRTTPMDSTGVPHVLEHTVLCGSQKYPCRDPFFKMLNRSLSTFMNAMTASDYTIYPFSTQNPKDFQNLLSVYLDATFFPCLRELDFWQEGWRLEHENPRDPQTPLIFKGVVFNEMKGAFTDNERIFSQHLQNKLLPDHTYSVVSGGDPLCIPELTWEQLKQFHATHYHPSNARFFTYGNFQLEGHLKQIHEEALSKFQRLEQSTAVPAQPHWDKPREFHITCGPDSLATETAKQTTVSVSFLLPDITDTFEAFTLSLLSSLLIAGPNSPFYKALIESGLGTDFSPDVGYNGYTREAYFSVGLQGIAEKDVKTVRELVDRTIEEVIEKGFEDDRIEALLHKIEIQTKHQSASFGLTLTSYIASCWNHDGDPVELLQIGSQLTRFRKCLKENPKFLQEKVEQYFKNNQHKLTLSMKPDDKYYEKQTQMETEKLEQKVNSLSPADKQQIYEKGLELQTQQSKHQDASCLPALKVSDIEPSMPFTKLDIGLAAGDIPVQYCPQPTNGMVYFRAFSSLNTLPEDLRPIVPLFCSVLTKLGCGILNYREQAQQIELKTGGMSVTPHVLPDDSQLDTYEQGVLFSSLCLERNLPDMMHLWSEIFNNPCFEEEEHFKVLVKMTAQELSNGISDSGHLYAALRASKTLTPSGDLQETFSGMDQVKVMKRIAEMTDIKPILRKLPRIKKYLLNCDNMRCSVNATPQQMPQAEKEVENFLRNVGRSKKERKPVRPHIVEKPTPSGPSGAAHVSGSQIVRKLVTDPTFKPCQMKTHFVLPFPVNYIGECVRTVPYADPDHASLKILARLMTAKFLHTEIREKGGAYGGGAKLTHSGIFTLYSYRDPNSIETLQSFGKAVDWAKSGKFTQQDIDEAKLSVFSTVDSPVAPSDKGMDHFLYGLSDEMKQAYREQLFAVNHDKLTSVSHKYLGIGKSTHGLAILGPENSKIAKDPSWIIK

[4] = target: T3, AEA-DA lipid probe targets in Neuro2a cells (Mus musculus, UniProt P21995)
T3 sequence (P21995 34-330): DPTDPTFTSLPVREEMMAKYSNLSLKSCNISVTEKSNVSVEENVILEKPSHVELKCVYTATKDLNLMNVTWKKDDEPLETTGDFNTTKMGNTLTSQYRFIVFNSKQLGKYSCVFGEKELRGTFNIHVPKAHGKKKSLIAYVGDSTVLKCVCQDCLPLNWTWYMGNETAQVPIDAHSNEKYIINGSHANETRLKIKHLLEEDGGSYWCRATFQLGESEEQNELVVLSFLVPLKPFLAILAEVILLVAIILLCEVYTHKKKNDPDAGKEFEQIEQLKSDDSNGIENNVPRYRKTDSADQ

[5] = target: T4, AEA-DA lipid probe targets in Neuro2a cells (Mus musculus, UniProt Q60605)
T4 sequence (Q60605 1-151): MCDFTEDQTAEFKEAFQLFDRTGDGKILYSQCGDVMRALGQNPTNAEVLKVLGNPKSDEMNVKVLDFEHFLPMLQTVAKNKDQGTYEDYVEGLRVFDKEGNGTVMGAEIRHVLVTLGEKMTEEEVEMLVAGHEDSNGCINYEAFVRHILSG

[6] = target: T5, AEA-DA lipid probe targets in Neuro2a cells (Mus musculus, UniProt P01897)
T5 sequence (P01897 25-362): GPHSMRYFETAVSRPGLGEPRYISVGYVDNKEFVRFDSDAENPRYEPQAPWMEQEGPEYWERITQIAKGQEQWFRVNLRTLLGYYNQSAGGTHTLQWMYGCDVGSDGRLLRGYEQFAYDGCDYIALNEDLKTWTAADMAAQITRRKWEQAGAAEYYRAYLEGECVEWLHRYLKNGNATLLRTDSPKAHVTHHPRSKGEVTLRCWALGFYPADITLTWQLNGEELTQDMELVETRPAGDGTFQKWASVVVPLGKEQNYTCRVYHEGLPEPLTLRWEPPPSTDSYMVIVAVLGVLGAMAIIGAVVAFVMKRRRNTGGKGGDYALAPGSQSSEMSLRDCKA

[7] = target: T6, AEA-DA lipid probe targets in Neuro2a cells (Mus musculus, UniProt Q02819)
T6 sequence (Q02819 26-459): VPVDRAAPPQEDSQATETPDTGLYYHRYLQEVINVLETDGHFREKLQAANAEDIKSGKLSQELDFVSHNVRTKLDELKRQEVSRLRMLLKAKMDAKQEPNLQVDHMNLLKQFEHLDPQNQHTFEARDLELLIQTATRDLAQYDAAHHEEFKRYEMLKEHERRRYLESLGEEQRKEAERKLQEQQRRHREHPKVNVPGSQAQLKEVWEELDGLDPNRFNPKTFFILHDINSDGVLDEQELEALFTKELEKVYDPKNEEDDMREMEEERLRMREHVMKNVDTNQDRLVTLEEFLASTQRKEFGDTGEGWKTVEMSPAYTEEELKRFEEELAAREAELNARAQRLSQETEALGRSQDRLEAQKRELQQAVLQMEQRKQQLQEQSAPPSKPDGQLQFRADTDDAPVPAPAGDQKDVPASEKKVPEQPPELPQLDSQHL

Sequence of AEA-DA lipid probe targets in Neuro2a cells (Mus musculus, UniProt Q60932) (Q60932 whole entry): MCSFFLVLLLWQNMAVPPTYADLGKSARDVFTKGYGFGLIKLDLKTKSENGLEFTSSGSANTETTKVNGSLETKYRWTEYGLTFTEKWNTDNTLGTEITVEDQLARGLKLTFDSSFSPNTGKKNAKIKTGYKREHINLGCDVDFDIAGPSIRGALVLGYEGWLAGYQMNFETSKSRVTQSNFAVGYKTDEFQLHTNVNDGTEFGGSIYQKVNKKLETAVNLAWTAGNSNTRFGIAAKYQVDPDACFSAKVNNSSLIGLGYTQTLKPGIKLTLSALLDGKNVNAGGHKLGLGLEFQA

SMILES	SILAC ratio, VDAC1 (P21796) ([1]; competitor 25 μM)	SILAC ratio, NSDHL (Q15738) ([2]; competitor 25 μM)	SILAC ratio, Nsdhl ([2]; competitor 25 μM)	SILAC ratio, Pitrm1 ([3]; competitor 25 μM)	SILAC ratio, Emb ([4]; competitor 25 μM)	SILAC ratio Myl6 ([5]; competitor 25 μM)	SILAC ratio H2-L ([6]; competitor 25 μM)	SILAC ratio, Nucb1 ([7]; competitor 25 μM)	further results
C=CCN(C)CCCCCCOc1ccc(C(=O)c2ccc(Br)cc2)c(F)c1 [Ro 48-8071, reference compound]	1.0	1.3	1.3	1.0	1.1	0.7	0.8	0.9	
CN1CCN(C(=O)c2[nH]c3ccc([N+](=O)[O-])cc3c2-c2ccccc2)CC1 [MJN228, (4-Methylpiperazin-1-yl)(5-nitro-3-phenyl-1H-indol-2-yl)methanone]	1.1	2.3	2.3	1.9	1.7	1.0	1.1	4.7	SILAC ratio, Nsdhl ([2]; competitor 10 μM): 1.7; SILAC ratio, Nsdhl ([2]; competitor 50 μM): 3.0; SILAC ratio, Nsdhl ([2]; competitor 100 μM): 4.0; SILAC ratio, Pitrm1 ([3]; competitor 10 μM): 1.6; SILAC ratio, Pitrm1 ([3]; competitor 50 μM): 2.2; SILAC ratio, Pitrm1 ([3]; competitor 100 μM): 3.4; SILAC ratio, Emb ([4]; competitor 10 μM): 1.3; SILAC ratio, Emb ([4]; competitor 50 μM): 1.4; SILAC ratio, Emb ([4]; competitor 100 μM): 2.2; SILAC ratio Myl6 ([5]; competitor 10 μM): 1.1; SILAC ratio Myl6 ([5]; competitor 50 μM): 1.3; SILAC ratio H2-L ([6]; competitor 10 μM): 1.0; SILAC ratio H2-L ([6]; competitor 50 μM): 1.1; SILAC ratio H2-L ([6]; competitor 100 μM): 1.0; concentration at which lipid probe binding to NUCB1 is inhibited (as low as) ([7]; Neuro2a cells, AEA-DA 5 μM): 10 µM; concentration of near-maximal inhibition of lipid probe binding to NUCB1 ([7]; Neuro2a cells, AEA-DA 5 μM): ~25 µM; SILAC ratio, Nucb1 ([7]; competitor 10 μM): 3.1; SILAC ratio, Nucb1 ([7]; competitor 50 μM): 5.6; SILAC ratio, Nucb1 ([7]; competitor 100 μM): 6.2
CCCCC/C=C\C/C=C\C/C=C\C/C=C\CCCC(=O)NCCO [AEA, anandamide, reference compound]									SILAC ratio, VDAC1 (P21796) ([1]; competitor 200 μM): 1.1; SILAC ratio, NSDHL (Q15738) ([2]; competitor 200 μM): 2.0; SILAC ratio, Nsdhl ([2]; competitor 200 μM): 2.0; SILAC ratio, Pitrm1 ([3]; competitor 200 μM): 2.1; SILAC ratio, Emb ([4]; competitor 200 μM): 1.8; SILAC ratio Myl6 ([5]; competitor 200 μM): 1.0; SILAC ratio H2-L ([6]; competitor 200 μM): 1.3; SILAC ratio, Nucb1 ([7]; competitor 200 μM): 1.5
CN1CCN(C(=O)c2c(-c3ccccc3)c3cc([N+](=O)[O-])ccc3n2C)CC1 [KML110, (1-Methyl-5-nitro-3-phenyl-1H-indol-2-yl)(4-methylpiperazin-1-yl)methanone]			1.7	2.0	1.8	1.4	1.7	3.4	
O=C(/C=C/c1cccnc1)NCCCCC1CCN(C(=O)c2ccccc2)CC1 [FK-866, reference compound]	1.0	1.3	1.3	1.4	1.3	1.3	1.0	1.2	interaction with NUCB1 protein ([7]; FIG. 16I and Table 4): did not interact
